# From article PMC8202924, “Emodepside targets SLO-1 channels of Onchocerca ochengi and induces broad anthelmintic effects in a bovine model of onchocerciasis” (PLoS Pathogens, 2021)
# Key:
# Format in all cases: in vivo
# [1] = test system: Onchocerca ochengi adult female worms; experiment: MTT assay for metabolic activity of worms from nodules; conditions: MRSM, 4 mg/kg every other day for 3 days; day 550
# Method: Worms from a second unfixed nodule (at the same timepoints listed above) were subjected to a 3-(4,5-dimethylthiazol-2-yl)-2,5-diphenyltetrazolium bromide (MTT) assay for metabolic activity, in which the insoluble formazan product was dissolved in DMSO and quantified colorimetrically at 620 nm in a microplate reader (model LT4500, Labtech, Heathfield, East Sussex, UK). Finally, dermal microfilarial densities were determined by incubation of skin biopsies (in triplicate per animal per timepoint) and normalized to 100 mg skin [59].
# [2] = test system: Onchocerca ochengi microfilariae; experiment: Dermal microfilarial load (area under the density-time curve); conditions: MRSM, 4 mg/kg every other day for 3 days; vs placebo
# From the text: Here, the null hypothesis, H0, is that the parameter m is not different to 0. If H0 can be rejected, a concentration-dependent effect of emodepside can be assumed. The alpha level selected for statistical significance was 5%. We considered three PD endpoints, a) uterine contents (with oocytes, developing embryonic stages, normal intrauterine Mf and degenerate intrauterine Mf considered separately), b) skin Mf load, and c) male and female motility (separately). Mf load is defined as the area under the curve of observed counts over time according to Eq 4: Mfload=∑i=2nMfdensityi+Mfdensityi−1/2*ti−ti−1 (4) per individual treated animal. To increase the robustness of the analysis, only animals presenting a skin Mf load of ≥100/100 mg skin at day -1 were included.
# The same principle was applied to the analysis of the uterine contents. In order to test a dose-dependent effect, and an effect over placebo, the log load of uterine contents or Mf was used as the PD endpoint E in Eq 3, and exposure C was the sum of doses. Over all doses and individual animals, an effect size (m) and corresponding statistics were calculated using R’s lm function.
# [3] = test system: Onchocerca ochengi adult male worms; experiment: Ex vivo visual motility assessment of adult male worms from nodules; conditions: MRSM, 4 mg/kg every other day for 3 days; day 550; n = 1
# Method: (§1) Tattooed nodules were removed under local anesthesia (lidocaine-epinephrine) on study days -1, 90, 180–190, 270–290, 360 and 550 in a randomized order as previously described. Nodules were trimmed of excess tissue and up to four nodules per animal were processed separately as follows: (1) stored frozen at –80°C for PK analysis (up to day 14 only); (2) injected in toto with 10% neutral-buffered formalin and stored at 4°C for histopathology (up to day 290 only); or (3) dissected immediately in phosphate-buffered saline to separate adult male and female worms. The anterior end of the female worm (which even in viable specimens is the only motile part of the parasite) was removed from the worm mass and incubated alongside intact male worms for 30 min at 37°C for visual motility assessment on a three-point scale. The remaining portion of the female worm mass was subjectively scored for fecundity on a four-point scale (0, uteri empty or worm structure degraded; 1, low; 2, intermediate; 3, normal) by examining the uterine contents microscopically in situ. This was followed by a fully quantitative embryogram to enumerate oocytes, embryonic stages and intrauterine Mf as described previously.
# The second class of PD endpoint considered was worm motility, which was recorded as a three-class categorical variable and quantified here as a fraction of normal worm motility. […]
# [4] = test system: Onchocerca ochengi adult worms in nodules; experiment: Histopathology of nodules, worm integrity scores after Striebel; design: key to Cumulative histopathological score, representative section: sum of 5 organ grades: 5 = healthy, 15 = max damage, 16 = debris/none; conditions: MRSM
# From the text: Nodules for histopathology (n = 72) were collected up to day 290, after which few were available in the melarsomine (MRSM) group. For consistency, nodules were taken from the same three animals in each experimental group at each timepoint. Formalin-fixed nodules were embedded in paraffin, sectioned, and stained with hematoxylin and eosin or Giemsa as previously described or with Lendrum’s carbol chromotrope to specifically stain eosinophils.
# Histological sections of nodules were scored by a single observer blinded to treatment group using the form proposed by Striebel, which was developed based on observations of O. volvulus (human) and Onchocerca gibsoni (bovine) nodules. In the current study, O. ochengi nodules were graded by applying a similar system in which the integrity of five structures or organs (cuticle, hypodermis, longitudinal muscle, pseudocoelomic cavity and gut) were classified through microscopical assessment of specific anatomical features (e.g., vacuoles in the hypodermis or host cells visible in the pseudocoelomic cavity) according to the categories in Table A in S1 Text. These grades were used to assign a pathology score for each aspect of parasite anatomy examined. Scores for all five structures or organs were then added together to produce a cumulative overall score, with a minimum score of 5 for parasite sections judged to be healthy across all five structures or organs. Since parasite sections showing extensive damage across all five anatomical regions could score a maximum of 15, sections containing cuticular debris only, or where parasites were unidentifiable in the section, were allocated a total score of 16. Where sections of male worms were present in the nodule these were scored separately to the females. Some sections contained more than one conjoined nodule. In these cases, females were also scored and recorded individually.
# The effect of different treatments relative to either (a) no treatment controls or (b) pre-treatment observations of parasite integrity was analyzed using linear mixed effects models with the nonlinear mixed effects model package in R [63, 64]. Overall scores for parasite integrity were modelled as the response variable compared with (a) treatment groups for each timepoint and (b) different timepoints for each respective treatment group. In both cases, animal identity was modelled as a random effect to account for repeat observations taken from the same individual, and results were adjusted using a post-hoc Bonferroni correction for multiple comparisons. Similarly, to assess the effect of different treatments on cellular infiltrates over time, total PMN or eosinophil counts per high-power field and eosinophils as a percentage of the total PMN population were each modelled as […] variables compared with (a) treatment groups for each timepoint and (b) different timepoints for each respective treatment group.
# [5] = test system: Onchocerca ochengi adult female worms; experiment: Ex vivo visual motility assessment of adult female worms from nodules; conditions: MRSM, 4 mg/kg every other day for 3 days
# Method: as §1
# The second class of PD endpoint considered was worm motility, which was recorded as a three-class categorical variable and quantified here as a fraction of normal worm motility. First, a linear model of decrease in motility per dose group was established with a study-wide mean motility at day –1: motilitydose_group,t=meanmotilityday−1−slopedose_group*t (5)
# [6] = 4 mg/kg every other day for 3 days, day 90
# [7] = 4 mg/kg every other day for 3 days, day 180
# [8] = 4 mg/kg every other day for 3 days, day 290
compound,measurement,setting,value
NCCS[As](SCCN)c1ccc(Nc2nc(N)nc(N)n2)cc1 [melarsomine],"MTT reduction, worms recovered",[1],no intact worms were recovered
same,Median reduction in Mf load,[2],96%
same,Fraction of normal adult male worm motility,[3],0%
same,Cumulative pathology scores of worm sections,"[4]; 4 mg/kg every other day for 3 days, all post-treatment timepoints, P <0.05",significantly higher pathology scores than PCBO
same,"Cumulative histopathological worm score, mixed-effects coefficient (SE) vs placebo",[4]; [6],8.00 (2.01)
same,"Cumulative histopathological worm score, mixed-effects coefficient (SE) vs pre-treatment (day 1)",[4]; [6],9.45 (1.81)
same,"Degenerate nodules (no parasite sections or only cuticular fragments), of three nodules",[4]; [6],1
same,"Mean histopathological score, cuticle",[4]; [6],3.00
same,"Mean histopathological score, gut",[4]; [6],3.33
same,"Mean histopathological score, hypodermis",[4]; [6],3.33
same,"Mean histopathological score, longitudinal muscle",[4]; [6],2.67
same,"Mean histopathological score, pseudocoleomic cavity",[4]; [6],3.33
same,"Cumulative histopathological worm score, mixed-effects coefficient (SE) vs placebo",[4]; [7],7.31 (2.41)
same,"Cumulative histopathological worm score, mixed-effects coefficient (SE) vs pre-treatment (day 1)",[4]; [7],8.12 (1.81)
same,"Degenerate nodules (no parasite sections or only cuticular fragments), of three nodules",[4]; [7],2
same,"Mean histopathological score, cuticle",[4]; [7],3.33
same,"Mean histopathological score, gut",[4]; [7],3.00
same,"Mean histopathological score, hypodermis",[4]; [7],3.00
same,"Mean histopathological score, longitudinal muscle",[4]; [7],3.00
same,"Mean histopathological score, pseudocoleomic cavity",[4]; [7],3.33
same,"Cumulative histopathological worm score, mixed-effects coefficient (SE) vs placebo",[4]; [8],8.67 (2.97)
same,"Cumulative histopathological worm score, mixed-effects coefficient (SE) vs pre-treatment (day 1)",[4]; [8],11.11 (1.81)
same,"Degenerate nodules (no parasite sections or only cuticular fragments), of three nodules",[4]; [8],3
same,"Mean histopathological score, cuticle",[4]; [8],4.00
same,"Mean histopathological score, gut",[4]; [8],4.00
same,"Mean histopathological score, hypodermis",[4]; [8],4.00
same,"Mean histopathological score, longitudinal muscle",[4]; [8],4.00
same,"Mean histopathological score, pseudocoleomic cavity",[4]; [8],4.00
same,"Cumulative histopathological score, representative section","[4]; day 290, animal B0435, degenerate nodule, no parasites",16
same,Female worm motility,"[5]; by day 90, all nodules",reduced to zero
same,Fraction of normal adult female worm motility,"[5]; day 90, n = 7",0%
same,Fraction of normal adult female worm motility,"[5]; day 185, n = 7",0%
same,Fraction of normal adult female worm motility,"[5]; day 275, n = 7",0%
same,Fraction of normal adult female worm motility,"[5]; day 360, n = 2",0%
same,Fraction of normal adult female worm motility,"[5]; day 550, n = 2",0%
